Results taken from patent US11203577B2, “Sulfonyl-structure-containing triazinone derivatives, their preparation methods and their uses in insect killing and/or bacterium killing” (Nankai University, priority 2017, dated 2021).
Where two headings read alike, the source gives them in different places.

Tests used:
[1] = system: mosquito larvae (Culer pipiens pallens); assay: Test of insecticidal activity against mosquito larvae (checked after 24 h); conditions: 24 h, read-out: Mortalities (%) against mosquito larvae
Wheat sheath blight = assay: In vitro fungicidal activity, PDA colony diameter; assay type: cell-based; conditions: 50 mg/kg, inhibition of colony diameter; read-out: Fungicidal activity (%) Wheat sheath blight
Wheat head blight = assay: whole plant or invertebrate; assay type: cell-based; conditions: Triticum aestivum, read-out: Fungicidal activity (%) Wheat head blight
[2] = system: bean aphides (Aphis laburni Kaltenbach); assay: Test of insecticidal activity against aphides (leaf immersion, checked after 96 h)
Experimental: The insecticidal activity against aphides is tested through the following steps: the tested aphides are bean aphides (Aphis laburni Kaltenbach), a normal colony fed with broad bean leaves in a laboratory. The pesticide is weighed, 1 mL DMF is added to dissolve the pesticide, then two drops of emulsifier, Tween-20 are added, and distilled water is added in an appropriate amount; the mixture is stirred to a homogeneous state to prepare pesticide solution at required concentration (see the following table for the specific concentration). […] In a control group, only emulsifier and solvent are added into distilled water, and the mixture is stirred to a homogeneous state.

[3] = system: Cercospora brown spot of peanut; assay: In vitro fungicidal activity, PDA colony diameter; assay type: cell-based; conditions: 96 h, 50 mg/kg, inhibition of colony diameter, read-out: Fungicidal activity (%) Cercospora brown spot of peanut
Rice bakanae disease = assay: In vitro fungicidal activity, PDA colony diameter; assay type: cell-based; conditions: read-out: Fungicidal activity (%) Rice bakanae disease
Armyworms = assay: Test of insecticidal activity against armyworms (leaf immersion); conditions: 600 mg/kg, 3-4 days
Potato late blight = assay: microbe, parasite or virus in culture; assay type: cell-based; conditions: Phytophthora infestans, 96 h, read-out: Fungicidal activity (%) Potato late blight
Watermelon anthracnose = assay: In vitro fungicidal activity, PDA colony diameter; assay type: cell-based; conditions: read-out: Fungicidal activity (%) Watermelon anthracnose
Cotton bollworms = assay: Test of insecticidal activity against cotton bollworms (pesticide mixed into feedstuff); conditions: read-out: Mortalities (%) Cotton bollworms
Experimental: Method of testing against cotton bollworms: the pesticide is mixed into the feedstuff, i.e., 3 mL prepared solution is added into about 27 g freshly prepared feedstuff; thus, required concentration is obtained by diluting by 10 times.

Maize borers = assay: Test of insecticidal activity against maize borers (leaf immersion); conditions: read-out: Mortalities (%) Maize borers
Sclerotinia rot of colza = assay: In vitro fungicidal activity, PDA colony diameter; assay type: cell-based; conditions: 96 h, 50 mg/kg, inhibition of colony diameter, read-out: Fungicidal activity (%) Sclerotinia rot of colza
Apple ring rot = assay: In vitro fungicidal activity, PDA colony diameter; assay type: cell-based; conditions: inhibition of colony diameter
In short: (§1)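 Mycelial plugs cut from the edge of 7-day PDA colonies placed on PDA containing 50 mg/kg compound or on compound-free PDA, grown 4 days. Colony diameters measured; percent inhibition calculated against untreated control.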

[4] = system: Capsicum phytophthora blight; assay: In vitro fungicidal activity, PDA colony diameter; assay type: cell-based; conditions: 96 h
In short: as §1

Cucumber fusarium wilt = assay: In vitro fungicidal activity, PDA colony diameter; assay type: cell-based; conditions: 96 h, 50 mg/kg, inhibition of colony diameter, read-out: Fungicidal activity (%) Cucumber fusarium wilt
Tomato early blight = assay: In vitro fungicidal activity, PDA colony diameter; assay type: cell-based, Alternaria solani; conditions: 50 mg/kg, inhibition of colony diameter; read-out: Fungicidal activity (%) Tomato early blight
Rice sheath blight = assay: In vitro fungicidal activity, PDA colony diameter; assay type: cell-based; conditions: 50 mg/kg, inhibition of colony diameter; read-out: Fungicidal activity (%) Rice sheath blight
[5] = system: Corn southern leaf blight; assay: In vitro fungicidal activity, PDA colony diameter; assay type: cell-based; conditions: 50 mg/kg, inhibition of colony diameter; read-out: Fungicidal activity (%) Corn southern leaf blight
[6] = Aphis, 96 h, read-out: Mortalities (%) against aphides
[7] = 50 mg/kg, inhibition of colony diameter

Row | Structure (SMILES) | mortality at 10 mg/kg [1] | inhibition at 50 mg/kg (Wheat sheath blight) | inhibition at 50 mg/kg (Wheat head blight) | mortality at 10 mg/kg [2, 6] | mortality at 100 mg/kg [2, 6] | mortality at 600 mg/kg [2, 6] | inhibition of growth at 50 mg/kg [3] | inhibition at 50 mg/kg (Rice bakanae disease; [7]) | Mortalities (%) Armyworms (Armyworms) | inhibition of growth at 50 mg/kg (Potato late blight) | inhibition at 50 mg/kg (Watermelon anthracnose; [7]) | mortality at 600 mg/kg (Cotton bollworms) | mortality at 600 mg/kg (Maize borers) | inhibition of growth at 50 mg/kg (Sclerotinia rot of colza) | inhibition at 50 mg/kg (Apple ring rot) | inhibition of growth at 50 mg/kg [4] | inhibition of growth at 50 mg/kg (Cucumber fusarium wilt) | inhibition at 50 mg/kg (Tomato early blight) | inhibition at 50 mg/kg (Rice sheath blight) | inhibition at 50 mg/kg [5] | further results
1 | CC1=NNC(=O)N(NS(=O)(=O)c2cn(C)cn2)C1 [Ia-31, 1-methyl-N-(6-methyl-3-oxo-2,3-dihydro-1,2,4-triazin-4(5H)-yl)-1H-imidazolyl-4-sulfonamide] | 60% | 47.1% | 17.2% | 35% | 100% | 100% | 13% | 12.5% | 10% | 18.8% | 28.1% | 5% | 15% | 31.6% | 29.4% | 18.8% | 14.7% | 16.1% | 5.8% | 2.6% | –
2 | CC1=NNC(=O)N(NS(=O)(=O)c2cn(C)c(C)n2)C1 [Ia-32, 1,2-dimethyl-N-(6-methyl-3-oxo-2,3-dihydro-1,2,4-triazin-4(5H)-yl)-1H-imidazolyl-4-sulfonamide] | 20% | 30.9% | 12.5% | 30% | 100% | 100% | 26.1% | – | 5% | 18.8% | – | 0% | 0% | 15.8% | 43.1% | 9.4% | 8.8% | 16.1% | 10.5% | 7.7% | inhibition at 50 mg/kg (Rice bakanae disease): 18.8%; inhibition at 50 mg/kg (Watermelon anthracnose): 18.8%
3 | CC1=NNC(=O)N(NS(=O)(=O)c2ccc3c(c2)CCO3)C1 [Ia-33, N-(6-methyl-3-oxo-2,3-dihydro-1,2,4-triazin-4(5H)-yl)-2,3-dihydrobenzofuran-5-sulfonamide] | 85% | 9.4% | 33.3% | – | 40% | 90% | 11.5% | 3.7% | 5% | 19% | 0% | 0% | 0% | 12.5% | 9.5% | 19.2% | 5.1% | 15% | 10.7% | 11.1% | –
4 | CC1=NNC(=O)N(NS(=O)(=O)c2ccc3c(c2)OCCO3)C1 [Ia-34, N-(6-methyl-3-oxo-2,3-dihydro-1,2,4-triazin-4(5H)-yl)-2,3-dihydrobenzo[b][1,4]dioxin-6-sulfonamide] | 15% | 36.8% | 10.9% | – | 35% | 90% | 13% | 12.5% | 15% | 3.1% | – | 10% | 10% | 6.6% | 39.2% | 18.8% | 8.8% | 16.1% | 4.7% | 10.3% | inhibition at 50 mg/kg (Watermelon anthracnose): 18.8%
5 | CC1=NNC(=O)N(N(S(C)(=O)=O)S(C)(=O)=O)C1 [Ib-1, N-(6-methyl-3-oxo-2,3-dihydro-1,2,4-triazin-4(5H)-yl)-N-(methylsulfonyl)-methylsulfonylamide] | 35% | 56.8% | 6.7% | 100% | 100% | 100% | 15.8% | 44.4% | 15% | 29.6% | 20.8% | 30% | 10% | 36.7% | 20.7% | 26.5% | 0% | 23.8% | 34.9% | 12.5% | insecticidal activity against aphides compared with pymetrozine ([2]; 5 mg/kg): equivalent to the insecticidal activity of pymetrozine; mortality at 5 mg/kg [2, 6]: 20%
6 | CCS(=O)(=O)N(N1CC(C)=NNC1=O)S(=O)(=O)CC [Ib-2, n-(ethylsulfonyl)-N-(6-methyl-3-oxo-2,3-dihydro-1,2,4-triazin-4(5H)-yl)-ethylsulfonamide] | 15% | 61.4% | 13.3% | – | – | 85% | 15.8% | 27.8% | 5% | 18.5% | 12.5% | 25% | 5% | 48.3% | 58.6% | 38.8% | 10% | 33.3% | 27% | 16.7% | –
7 | CCCS(=O)(=O)N(N1CC(C)=NNC1=O)S(=O)(=O)CCC [Ib-3, N-(6-methyl-3-oxo-2,3-dihydro-1,2,4-triazin-4(5H)-yl)-N-(n-propylsulfonyl)propyl-1-sulfonamide] | 25% | 52.3% | 10% | – | – | 75% | 15.8% | 38.9% | 10% | 22.2% | 25% | 5% | 10% | 40% | 17.2% | 26.5% | 0% | 0% | 38.1% | 20.8% | –
8 | CCCCS(=O)(=O)N(N1CC(C)=NNC1=O)S(=O)(=O)CCCC [Ib-4, N-(n-butylsulfonyl)-N-(6-methyl-3-oxo-2,3-dihydro-1,2,4-triazin-4(5H)-yl)-butyl-1-sulfonamide] | 75% | 65.5% | 3.3% | – | – | 90% | 15.8% | 50% | 15% | 33.3% | 29.2% | 45% | 10% | 43.3% | 27.6% | 34.7% | 20% | 19% | 27% | 20.8% | –
9 | CC1=NNC(=O)N(N(S(=O)(=O)c2ccc(C)cc2)S(=O)(=O)c2ccc(C)cc2)C1 [Ib-6, 4-methyl-N-(6-methyl-3-oxo-2,3-dihydro-1,2,4-triazin-4(5H)-yl)-N-(4-methylbenzenesulfonyl)benzenesulfonamide] | 35% | 56.8% | 13.3% | 30% | 80% | 100% | 15.8% | – | 15% | 22.2% | 29.2% | 15% | 15% | 15% | 27.6% | 26.5% | 0% | 23.8% | 50.8% | 16.7% | inhibition at 50 mg/kg (Rice bakanae disease): 22.2%
